Reference: patent publication US20070203091A1, “Methods and therapeutic compositions for improving liver, blood flow and skeletal muscle functions in advanced diseases and aging” (priority 2006, published 2007)
Entries after “also recorded” stand apart in the source; their conditions may differ. Like-named read-outs stand apart in the source and are kept apart here.

Assays:
[1] = Laboratory parameters, chemistry: LDH, bilirubin, SGOT, SGPT, Phase I study; type: in vivo, human
Source text: Serum LDH levels are an established strong independent negative prognostic factor, inversely related to survival in a great variety of adverse clinical conditions. In advanced refractory cancers, high LDH and low Karnofsky's performance status are among the strongest established independent negative prognostic factors of survival and quality of life (29).

[2] = Safety and tolerability (NCI CTC version 2 toxicity grades) of ATP infusion, Phase I study; type: in vivo, human
Protocol: Two of the seven evaluable patients had advanced prostate cancer with bone metastases and one each had advanced mesothelioma, metastatic breast cancer, metastatic melanoma, metastatic colon cancer and renal cell carcinoma.
The 50 μg/kg/min dose could be reduced to 25 μg/kg/min if adverse effects occurred. […] Succeeding infusions in that patient were at the infusion dose tolerated at the end of the previous treatment. If adverse events occurred in patients being infused at 25 μg/kg/min, the infusions were terminated and the patient received no additional infusions.

[3] = Stability of ATP drug product and infusion solution; type: physicochemical
Protocol: An example of a clinical procedure in the treatment of individuals in need thereof is as follows. After determination of baseline, pre-treatment vital signs, hemodynamic variables and blood chemistry, an ATP dose escalation procedure is initiated. ATP is provided as a sterile solution in single use vials. […] Storage of the clinical solution is at controlled refrigerated temperature (2° C.-6° C.). […] The concentration of the final sterile solution for the infusion is 8 mg/ml.
See attached AAI International Analytical Testing Report Aug. 2, 2001.

[4] = Tumor burden endpoints (PSA), Phase I study; type: in vivo, human
[5] = cited from earlier work
[6] = in vivo; cited from earlier work
[7] = Week 1 (Infusion 1), baseline, N=15
[8] = patients 502-505, week 1 (pre-dose) to week 13 (follow-up)
[9] = ATP infusion rate 500-1000 μg/kg/min
[10] = ATP infusion rate ≦100 μg/kg/min

Compound: Nc1ncnc2c1ncn2[C@@H]1O[C@H](COP(=O)(O)OP(=O)(O)OP(=O)(O)O)[C@@H](O)[C@H]1O [ATP, adenosine 5′-triphosphate]
- LDH, Change from Baseline, Median [1, 7]: 0.0 U/L
- LDH, Observed Values, Mean [1, 7]: 349.0 U/L
- LDH, Observed Values, Median [1, 7]: 265.0 U/L
- Phosphorus, Change from Baseline, Mean [1, 7]: 0.0 mg/dL
- Phosphorus, Change from Baseline, Median [1, 7]: 0.0 mg/dL
- Phosphorus, Observed Values, Mean [1, 7]: 3.1 mg/dL
- Phosphorus, Observed Values, Median [1, 7]: 3.2 mg/dL
- Total Bilirubin, Change from Baseline, Mean [1, 7]: 0.0 mg/dL
- Total Bilirubin, Change from Baseline, Median [1, 7]: 0.0 mg/dL
- Total Bilirubin, Observed Values, Mean [1, 7]: 0.7 mg/dL
- Total Bilirubin, Observed Values, Median [1, 7]: 0.4 mg/dL
- LDH, Change from Baseline, Median ([1]; Week 2 (Infusion 2), N=14): 24.0 U/L
- LDH, Observed Values, Mean ([1]; Week 2 (Infusion 2), N=14): 386.6 U/L
- LDH, Observed Values, Median ([1]; Week 2 (Infusion 2), N=14): 325.5 U/L
- Phosphorus, Change from Baseline, Mean ([1]; Week 2 (Infusion 2), N=14): 0.1 mg/dL
- Phosphorus, Change from Baseline, Median ([1]; Week 2 (Infusion 2), N=14): 0.1 mg/dL
- Phosphorus, Observed Values, Mean ([1]; Week 2 (Infusion 2), N=14): 3.2 mg/dL
- Phosphorus, Observed Values, Median ([1]; Week 2 (Infusion 2), N=14): 3.2 mg/dL
- Total Bilirubin, Change from Baseline, Mean ([1]; Week 2 (Infusion 2), N=14): -0.1 mg/dL
- Total Bilirubin, Change from Baseline, Median ([1]; Week 2 (Infusion 2), N=14): 0.0 mg/dL
- Total Bilirubin, Observed Values, Mean ([1]; Week 2 (Infusion 2), N=14): 0.6 mg/dL
- Total Bilirubin, Observed Values, Median ([1]; Week 2 (Infusion 2), N=14): 0.4 mg/dL
- LDH, Change from Baseline, Median ([1]; Week 4 (Infusion 4), N=11): 3.0 U/L
- LDH, Observed Values, Mean ([1]; Week 4 (Infusion 4), N=11): 277.4 U/L
- LDH, Observed Values, Median ([1]; Week 4 (Infusion 4), N=11): 211.0 U/L
- Phosphorus, Change from Baseline, Mean ([1]; Week 4 (Infusion 4), N=11): -0.1 mg/dL
- Phosphorus, Change from Baseline, Median ([1]; Week 4 (Infusion 4), N=11): 0.0 mg/dL
- Phosphorus, Observed Values, Mean ([1]; Week 4 (Infusion 4), N=11): 3.1 mg/dL
- Phosphorus, Observed Values, Median ([1]; Week 4 (Infusion 4), N=11): 3.0 mg/dL
- Total Bilirubin, Change from Baseline, Mean ([1]; Week 4 (Infusion 4), N=11): 0.2 mg/dL
- Total Bilirubin, Change from Baseline, Median ([1]; Week 4 (Infusion 4), N=11): -0.1 mg/dL
- Total Bilirubin, Observed Values, Mean ([1]; Week 4 (Infusion 4), N=11): 0.8 mg/dL
- Total Bilirubin, Observed Values, Median ([1]; Week 4 (Infusion 4), N=11): 0.2 mg/dL
- LDH, Change from Baseline, Median ([1]; Week 6 (Infusion 6), N=9): −20.0 U/L
- LDH, Observed Values, Mean ([1]; Week 6 (Infusion 6), N=9): 265.6 U/L
- LDH, Observed Values, Median ([1]; Week 6 (Infusion 6), N=9): 173.0 U/L
- Phosphorus, Change from Baseline, Mean ([1]; Week 6 (Infusion 6), N=9): -0.1 mg/dL
- Phosphorus, Change from Baseline, Median ([1]; Week 6 (Infusion 6), N=9): 0.2 mg/dL
- Phosphorus, Observed Values, Mean ([1]; Week 6 (Infusion 6), N=9): 3.1 mg/dL
- Phosphorus, Observed Values, Median ([1]; Week 6 (Infusion 6), N=9): 3.3 mg/dL
- Total Bilirubin, Change from Baseline, Mean ([1]; Week 6 (Infusion 6), N=9): 1.2 mg/dL
- Total Bilirubin, Change from Baseline, Median ([1]; Week 6 (Infusion 6), N=9): -0.1 mg/dL
- Total Bilirubin, Observed Values, Mean ([1]; Week 6 (Infusion 6), N=9): 1.9 mg/dL
- Total Bilirubin, Observed Values, Median ([1]; Week 6 (Infusion 6), N=9): 0.3 mg/dL
- LDH, Change from Baseline, Median ([1]; Week 8 (Infusion 8), N=6): −25.0 U/L
- LDH, Observed Values, Mean ([1]; Week 8 (Infusion 8), N=6): 245.0 U/L
- LDH, Observed Values, Median ([1]; Week 8 (Infusion 8), N=6): 161.0 U/L
- Phosphorus, Change from Baseline, Mean ([1]; Week 8 (Infusion 8), N=7): 0.3 mg/dL
- Phosphorus, Change from Baseline, Median ([1]; Week 8 (Infusion 8), N=7): 0.0 mg/dL
- Phosphorus, Observed Values, Mean ([1]; Week 8 (Infusion 8), N=7): 3.4 mg/dL
- Phosphorus, Observed Values, Median ([1]; Week 8 (Infusion 8), N=7): 3.4 mg/dL
- Total Bilirubin, Change from Baseline, Mean ([1]; Week 8 (Infusion 8), N=7): -0.0 mg/dL
- Total Bilirubin, Change from Baseline, Median ([1]; Week 8 (Infusion 8), N=7): -0.1 mg/dL
- Total Bilirubin, Observed Values, Mean ([1]; Week 8 (Infusion 8), N=7): 0.4 mg/dL
- Total Bilirubin, Observed Values, Median ([1]; Week 8 (Infusion 8), N=7): 0.4 mg/dL
- LDH, Change from Baseline, Median ([1]; Week 10 (Follow-up), N=5): −15.0 U/L
- LDH, Observed Values, Mean ([1]; Week 10 (Follow-up), N=5): 214.6 U/L
- LDH, Observed Values, Median ([1]; Week 10 (Follow-up), N=5): 155.0 U/L
- Phosphorus, Change from Baseline, Mean ([1]; Week 10 (Follow-up), N=6): 0.0 mg/dL
- Phosphorus, Change from Baseline, Median ([1]; Week 10 (Follow-up), N=6): 0.3 mg/dL
- Phosphorus, Observed Values, Mean ([1]; Week 10 (Follow-up), N=6): 3.2 mg/dL
- Phosphorus, Observed Values, Median ([1]; Week 10 (Follow-up), N=6): 3.3 mg/dL
- Total Bilirubin, Change from Baseline, Mean ([1]; Week 10 (Follow-up), N=6): 0.1 mg/dL
- Total Bilirubin, Change from Baseline, Median ([1]; Week 10 (Follow-up), N=6): -0.1 mg/dL
- Total Bilirubin, Observed Values, Mean ([1]; Week 10 (Follow-up), N=6): 0.5 mg/dL
- Total Bilirubin, Observed Values, Median ([1]; Week 10 (Follow-up), N=6): 0.4 mg/dL
- LDH, Change from Baseline, Median ([1]; Week 13 (Follow-up), N=5): −27.0 U/L
- LDH, Observed Values, Mean ([1]; Week 13 (Follow-up), N=5): 168.2 U/L
- LDH, Observed Values, Median ([1]; Week 13 (Follow-up), N=5): 158.0 U/L
- Phosphorus, Change from Baseline, Mean ([1]; Week 13 (Follow-up), N=5): -0.0 mg/dL
- Phosphorus, Change from Baseline, Median ([1]; Week 13 (Follow-up), N=5): 0.2 mg/dL
- Phosphorus, Observed Values, Mean ([1]; Week 13 (Follow-up), N=5): 3.2 mg/dL
- Phosphorus, Observed Values, Median ([1]; Week 13 (Follow-up), N=5): 3.2 mg/dL
- Total Bilirubin, Change from Baseline, Mean ([1]; Week 13 (Follow-up), N=6): 0.1 mg/dL
- Total Bilirubin, Change from Baseline, Median ([1]; Week 13 (Follow-up), N=6): 0.1 mg/dL
- Total Bilirubin, Observed Values, Mean ([1]; Week 13 (Follow-up), N=6): 0.4 mg/dL
- Total Bilirubin, Observed Values, Median ([1]; Week 13 (Follow-up), N=6): 0.4 mg/dL
- SGOT (serum glutamate oxaloacetate transaminase) [1, 8]: Consistent decreases
- SGPT (serum glutamate pyruvate transaminase) [1, 8]: Consistent decreases
- serum LDH (lactate dehydrogenase) [1, 8]: Consistent decreases
- serum levels of bilirubin ([1]; week 13 of treatment): remained stable
- serum levels of lactate dehydrogenase (LDH) ([1]; week 13 of treatment): dropped
- Lab. Toxicity ([2]; Patient 501): Nil noted
- Clin. Toxicity and CTC-Grade ([2]; Patient 501, Ca Colon, 50 & 75 μg/kg/min, Weeks 1&2): I Flushing
- Lab. Toxicity ([2]; Patient 502): Nil noted
- Clin. Toxicity and CTC-Grade ([2]; Patient 502, Mesothelioma, 50, 75, & 100 μg/kg/min, Weeks 1-8): I Chest D/Dysp; also recorded: I Flushing; also recorded: I Anxiety
- Lab. Toxicity: Hb decreased, Grade II ([2]; Patient 503): Hb 8.0 g/dl
- Clin. Toxicity and CTC-Grade ([2]; Patient 503, Prostate, 50, 75, & 100 μg/kg/min, Weeks 1-8): II Confusion -
- Lab. Toxicity ([2]; Patient 504): Nil noted
- Lab. Toxicity ([2]; Patient 505): Nil noted
- Clin. Toxicity and CTC-Grade ([2]; Patient 505, Melanoma, 50, 75 & 100 μg/kg/min, Weeks 1-8): I Flushing; also recorded: AVBlock/CHB
- Lab. Toxicity: bilirubin and LFT's - disease progression ([2]; Patient 506): Increasing
- Clin. Toxicity and CTC-Grade ([2]; Patient 506, Ca Colon, 50 & 75 & 100 μg/kg/min, Weeks 1-6): I Headache
- Lab. Toxicity ([2]; Patient 507): Nil noted
- Clin. Toxicity and CTC-Grade ([2]; Patient 507, Ca Prostate, 50, 75 & 100 μg/kg/min, Weeks 1-8): I Nasal stuffiness; also recorded: II increasing pain -
- Lab. Toxicity ([2]; Patient 508, 50 μg/kg/min, Week 1): Nil noted
- clinical toxicities ([2]; Patient 508, first infusion at 50 μg/kg/min): No clinical toxicities were noted
- Clin. Toxicity and CTC-Grade ([2]; Patient 509, Renal cell carcinoma, 50, 75 & 100 μg/kg/min, Weeks 1-8): I anxiety; also recorded: I nausea; also recorded: I vomiting
- Lab. Toxicity: AST/Alk Phos increase ([2]; Patient 509, at FU): At FU grade I
- patients tolerating the maximum allowable dose of 100 μg/kg/min ([2]; continuous 8 hour intravenous infusion, first nine patients): seven of nine
- tolerability in terminal patients ([2]; seen in patient 506): well tolerated
- 3 month stability data ([3]; 3 months under routine storage conditions): remains stable at 3 months under
- 15 months stability testing ([3]; refrigerated ATP (5° C.)): 99.7 % of label
- stability of the final ATP solutions ([3]; room temperature, infusion solution 8 mg/ml): at least 96 hours
- Tumor burden Endpoints: PSA Post ([4]; Patient 503, PSA Pre 4000): Post 3903
- PSA compared to baseline ([4]; Patient 503, at the end of follow up): unchanged
- Tumor burden Endpoints: PSA ([4]; Patient 507, increased after stopping Rx): PSA unchanged
- Cardiac Output [5, 9]: Increase
- Heart Rate [5, 9]: Increase
- Pulmonary Arterial Pressure [5, 9]: Decrease
- Pulmonary Vascular Resistance [5, 9]: Decrease
- Systemic Arterial Pressure [5, 9]: Decrease
- Systemic Vascular Resistance [5, 9]: Decrease
- Cardiac Output [5, 10]: Small Increase
- Heart Rate [5, 10]: do not affect; also recorded: No Change
- Pulmonary Arterial Pressure [5, 10]: No Change
- Pulmonary Vascular Resistance [5, 10]: Decrease
- Systemic Arterial Pressure [5, 10]: do not affect; also recorded: No Change
- Systemic Vascular Resistance [5, 10]: Small Decrease
- half-life of expanded ATP pools in red blood cells [6]: about 6 hours
